Entries after “also recorded” stand apart in the source; their conditions may differ.

The first test has as its system β-amyloid peptide (Aβ) synthesized by β APP-CHO cells. The experiment in a line: Aβ production in βAPP-CHO cells, sandwich ELISA. The test is classed as cell-based, Chinese hamster. The settings on record: CHO cells overexpressing human βAPP; test compounds added at various dose concentrations to the medium; FIG. 5 and FIG. 6. The text has this:
This experiment was designed to determine the ability of lipid regulating agents to alter the production of β-amyloid peptide (Aβ) in cultured cells, and their consequent activity in preventing and treating Alzheimer's Disease.
Chinese hamster ovary (CHO) cells were stably transfected with a construct to enable the overexpression of the human β-amyloid precursor protein (βAPP) gene to cause increased production of Aβ. The measurement of Aβ synthesized by these β APP-CHO cells was done using a standard sandwich ELISA assay, employing well-characterized antibodies to the N-terminus (6E10) and middle (4G8) of Aβ. This assay is routinely used to measure Aβ in tissues, body fluids, and cell culture media. Cultures of β APP-CHO cells were grown to near confluency, and then the test compounds were added at various dose concentrations to the cell medium.
Background: An ELISA detects its analyte on a solid surface through an enzyme-linked reagent.
As to `CC(C)c1cc(C(C)C)c(CC(=O)NS(=O)(=O)Oc2c(C(C)C)cccc2C(C)C)c(C(C)C)c1` [Avasimibe], the “reduction in Aβ” value is listed as “substantial dose-dependent reduction”.

Take `Cc1ccc(C)c(OCCCC(C)(C)C(=O)O)c1` [CI-719, gemfibrozil]: the “reduction in Aβ” value is “only moderate changes”.

For `CC(C)(CCCCOCCCCC(C)(C)C(=O)O)C(=O)O` [CI-1027], the “reduction in Aβ” value is recorded as “only moderate changes”.

Take `c1coc(CSC2=NCCS2)c1` [PD 69405]: the “reduction in Aβ” value is on record as “only moderate changes”.

As to `CC[C@H](C)C(=O)O[C@H]1C[C@@H](C)C=C2C=C[C@H](C)[C@H](CC[C@@H]3C[C@@H](O)CC(=O)O3)[C@H]21` [lovastatin], the “reduction in Aβ” value is recorded as “dose-dependent inhibition; also recorded: dramatic dose-dependent reduction”.

For the compound `CC[C@H](C)C(=O)O[C@H]1CCC=C2C=C[C@H](C)[C@H](CC[C@@H]3C[C@@H](O)CC(=O)O3)[C@H]21` [mevastatin], the “reduction in Aβ” value is “dose-dependent inhibition”.

Still in this test, the particulars now being: CHO cells overexpressing human βAPP; test compounds added at various dose concentrations to the medium; FIG. 5 and FIG. 6; listed as Mevastatin.
Regarding `CC[C@H](C)C(=O)O[C@H]1CCC=C2C=C[C@H](C)[C@H](CC[C@@H]3C[C@@H](O)CC(=O)O3)[C@H]21` [mevastatin], the “reduction in Aβ” value is on record as “dramatic dose-dependent reduction”.

(Values after US20060069163A1, “Method for treating Alzheimer's disease” (Pfizer Inc, priority 2000, published 2006).)
